Data set [1] can be described thus: Pharmacokinetics in cynomolgus macaque. The following applies: male, cynomolgus monkey, plasma, po, intragastric administration 15 mg/kg. The format is in vivo. The protocol: Taking a cynomolgus macaque as a tested animal, the cynomolgus macaque was administrated with the compound in Example 96 of the present invention by intragastric administration, and drug concentrations in plasma at different times were determined by a LC/MS/MS method to study pharmacokinetic characteristics of the compound of the present invention in the cynomolgus macaque.
Cynomolgus macaque, male, 4.6 kg to 5.7 kg, adult, purchased from Guangxi Fangcheng Gang Spring Biological Technology Development Corporation Ltd.
Preparation of drug administrated by intragastric administration: a proper amount of compound to be tested was added to a proper amount of DMAC: (30% Kolliphor HS 15): Saline=5%: 10%; 85% (v/v/v), and shaken in a vortex manner, so as to prepare a final solution with a concentration of 3 mg/mL.
Cynomolgus macaques were organized into one group, which was an intragastric administration group (3 cynomolgus macaques in single group).
Intragastric administration group: the drug was administrated by intragastric administration (according to a dosage of 15 mg/kg and a volume of 5 ml/kg) after fasting overnight, and food was taken 4 hours after administration.
Intragastric administration group: about 500 μL of blood was collected into an EDTA-K2 anticoagulant tube through a cephalic vein and a saphenous vein 0.25 hour, 0.5 hour, 1 hour, 2 hours, 4 hours, 8 hours and 24 hours after administration.
The blood sample was placed on wet ice first, and plasma was centrifugally separated within 15 minutes after sampling (centrifugation conditions: 2,000 g, 4° C., 5 minutes). The collected upper plasma was stored at −70° C. before analysis.
Contents of the compound to be tested in cynomolgus macaque plasma after intragastric administration were determined by LC-MS/MS.

The nature of data set [2]: Pharmacokinetics in ICR mouse. The format is in vivo. The settings on record: male, plasma; for AUC(0-t): read-out: Curve area AUC0-t; for half-life: read-out: Half-life period T1/2(h) (converted). As to the method: Taking an ICR mouse as a tested animal, the ICR mouse was administrated with the compound in Example 96 of the present invention by intravenous injection and intragastric administration, and drug concentrations in plasma at different times were determined by a LC/MS/MS method to study pharmacokinetic characteristics of the compound of the present invention in the mouse.
ICR mice, male, 29.2 g to 34.9 g, purchased from Beijing Vital River Laboratory Animal Technology Co., Ltd.
Preparation of drug administrated by intravenous injection: a proper amount of compound to be tested was added to a proper amount of DMAC: (30% Soltol HS 15): Saline=10%: 10%: 80% (v/v/v), and shaken in a vortex manner, so as to prepare a final solution with a concentration of 0.2 mg/mL.
Preparation of drug administrated by intragastric administration: a proper amount of compound to be tested was added to a proper amount of DMA: (30% Soltol HS 15): Saline=10%: 10%: 80% (v/v/v), and shaken in a vortex manner, so as to prepare a final solution with a concentration of 0.5 mg/mL.
ICR mice were divided into an intravenous injection group and an intragastric administration group (9 rats in single group).
Intravenous injection group: the drug was administrated by intravenous injection (according to a dosage of 1 mg/kg and a volume of 5 mL/kg) without fasting.
Intragastric administration group: the drug was administrated by intragastric administration (according to a dosage of 5 mg/kg and a volume of 10 mL/kg) after fasting overnight, and food was taken 4 hours after administration.
Intravenous injection group: about 80 μL of blood was collected into an EDTA-K2 anticoagulant tube through an orbit 0.083 hour, 0.25 hour, 0.5 hour, 1 hour, 2 hours, 4 hours, 8 hours, 12 hours and 24 hours after administration.
Intragastric administration group: about 80 μL of blood was collected through an orbit 0.25 hour, 0.5 hour, 1 hour, 2 hours, 4 hours, 8 hours, 12 hours and 24 hours before and after administration.
The whole blood sample was placed in an EDTA-K2 anticoagulant tube. Plasma was centrifugally separated (centrifugation conditions: 1,500 g, 10 minutes). The collected upper plasma was stored al −40° C. to −20° C. before analysis.
Contents of the compound to be tested in mouse plasma after intravenous and intragastric administration were determined by LC-MS/MS.

Data set [3] in a line: Metabolic stability in dog liver microsomes. The class given is in vitro ADME. The protocol: (§1) The experiment was intended to study the metabolic stability of the compounds of the present invention in dog and mouse liver microsomes.
(§2) A test compound and the compound of Comparative Example 1 were incubated with dog and mouse liver microsomes (the Corning Company. USA) respectively, and a coenzyme NADPH was added to start the reaction. 135 μL of acetonitrile containing an internal standard (IS) was added to wells of a corresponding plate after 0, 5, 15, 30 and 45 minutes respectively to terminate the reaction. After protein precipitation, the solution was centrifuged at 5.594 rpm for 15 minutes, and a supernatant was taken. The supernatant was diluted with water by 1:1 (volume ratio) and then analyzed by a LC-MS/MS method. Ketanserin was used as an internal reference compound, and two copies of Ketanserin were incubated in parallel.
(§3) A peak area ratio of analyte/internal standard (Aanalyte/A1s) was obtained by an instrument, and a remaining percentage (% Control) was calculated by ratios of Aanalyte/A1s in a sample at a non-zero time point and a sample at a zero time point. Ln (% Control) was plotted and fitted linearly with the incubation time. A scavenging constant (k, min^−1) and a scavenging half-life (T1/2, min) of the tested compound were calculated by the following equation.
(In general: Liver microsomes are a subcellular fraction often used to study metabolism.)

Data set [4] is described as follows: Metabolic stability in mouse liver microsomes. The class given is in vitro ADME. As to the method: as §1, §2, §3
The mark [5] stands for this setting: iv, injection administration 1 mg/kg.
Setting [6] is: po, intragastric administration 5 mg/kg.

Consider `COCC[C@@H](C(=O)Nc1ccc2nn(C)cc2c1)N1CC(=O)N(c2cc(Cl)ccc2-n2cc(Cl)nn2)CC1=O` [Example 96, (S)-2-(4-(5-chloro-2-(4-chloro-1H-1,2,3-triazol-1-yl)phenyl)-2,5-dioxopiperazin-1-yl)-4-methoxy-N-(2-methyl-2H-indazol-5-yl)butanamide], for which the Cmax in data set [1] (read-out: Blood concentration Cmax) worked out at 834 ± 482 ng/mL; in data set [2] (po, intragastric administration 5 mg/kg, read-out: Blood concentration Cmax), 2040 ng/mL. Further, the AUC(0-t) in data set [1] (read-out: Curve area AUC0-t) was 4210 ± 1240 ng·h/mL; in data set [2] (setting [5]) it was 1240 ng·h/mL; in data set [2] (setting [6]) it was 4330 ng·h/mL. Moreover, the half-life in data set [1] (read-out: Half-life period T1/2(h) (converted)) was 3.71 ± 0.42 h; in data set [2] (setting [5]), 0.664 h; in data set [2] (setting [6]) it was 1.84 h. Moreover, the bioavailability in data set [2] (po, intragastric 5 mg/kg vs injection 1 mg/kg, read-out: Bioavailability F(%)) stood at 69.8%. In addition, the half-life at 1 μM in data set [3] (dog liver microsomes 0.5 mg/mL, 1 μM compound, NADPH, read-out: Half-life period (T1/2 min) Dog) is 15.3 h; in data set [4] (mouse liver microsomes 0.5 mg/mL, 1 μM compound, NADPH, read-out: Half-life period (T1/2 min) Mouse), 5.53 h. In addition, the “Half-life period and stability compared with Comparative Example 1” value in data set [3] (dog liver microsomes, in words) is “longer half-life period and a higher stability”; in data set [4] (mouse liver microsomes, in words), “longer half-life period and a higher stability”.

By bioavailability is commonly meant the share of a dose that reaches the circulation, judged against a reference dose that is usually intravenous.

For the origin of these results see patent publication US20230373972A1, “PIPERAZINE DERIVATIVE, PREPARATION METHOD THEREFOR AND USE THEREOF” (Zhejiang Hisun Pharmaceutical Co., Ltd., priority 2020, published 2023).
